Data published in ChEMBL document CHEMBL1201862, “PubChem BioAssay data set” (2004).
Calls of active or inactive are those of the source. For most assays here, no stated cut-off is given here; in the data, actives have a measured EC50 and inactives only a lower limit.

What was measured:
[1] = DRD fibroblast viability loss – cell-based, non-viral oncogenic, luminescence, dose response (AID 1934); assay type: functional; details: Homo sapiens
[2] = luciferase reporter signal suppression in cells – H4 neuroglioma cells, luminescence, dose response (AID 1990); assay type: functional, cell-based
[3] = Luminescence Cell-Based Dose Response HTS to Identify Inhibitors of 5'UTR Stem-Loop Driven Prion Protein mRNA Translation in H4 Neuroglioblastoma Cells. [Related pubchem assays: 1827 (Project Summary), 1813 (Primary HTS)]; assay type: functional
[4] = alpha-synuclein stem-loop luciferase translation blockers – H4 neuroglioma cells, luminescence, confirmation (AID 1988); assay type: functional, cell-based
Paired box protein Pax-8 = Paired box protein Pax-8 (Homo sapiens, UniProt Q06710); test: PAX8 transcriptional activity inhibition in RMG-I – RMG-I cells, luciferase, cherry-pick, dose response (AID 687027); assay type: functional, cell-based;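 further: luciferase reporter driven by Pax8 target thyroperoxidase promoter measured by SteadyGlo luminescence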
Paired box protein Pax-8, sequence (Q06710 whole entry): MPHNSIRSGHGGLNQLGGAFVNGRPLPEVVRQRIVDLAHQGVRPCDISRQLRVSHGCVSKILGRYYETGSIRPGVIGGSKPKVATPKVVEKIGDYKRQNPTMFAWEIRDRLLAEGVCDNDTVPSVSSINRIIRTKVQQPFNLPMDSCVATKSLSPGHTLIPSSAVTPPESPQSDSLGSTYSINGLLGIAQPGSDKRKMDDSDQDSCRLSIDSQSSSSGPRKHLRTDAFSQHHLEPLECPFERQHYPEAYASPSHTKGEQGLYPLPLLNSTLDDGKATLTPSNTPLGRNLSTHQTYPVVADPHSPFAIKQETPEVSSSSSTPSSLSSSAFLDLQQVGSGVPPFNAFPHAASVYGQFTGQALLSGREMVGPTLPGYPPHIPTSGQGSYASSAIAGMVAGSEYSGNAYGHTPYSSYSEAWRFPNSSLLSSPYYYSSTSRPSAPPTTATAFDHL

BJ [5] = test: growth inhibition of engineered Ras-driven BJ cells – cell-based, alamar blue fluorescence, cherrypicked samples, dose response (AID 2631); assay type: functional; details: Homo sapiens;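 further: confirmatory dose-response assay in RAS-dependent BJ fibroblasts engineered with TERT, LT and ST, with cytotoxicity read by fluorescence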
Cytochrome P450 3A4 = Cytochrome P450 3A4 (Homo sapiens, UniProt P08684);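 further: CYP3A4 tested as one member of a cytochrome P450 panel screen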
Cytochrome P450 3A4, sequence (P08684 whole entry): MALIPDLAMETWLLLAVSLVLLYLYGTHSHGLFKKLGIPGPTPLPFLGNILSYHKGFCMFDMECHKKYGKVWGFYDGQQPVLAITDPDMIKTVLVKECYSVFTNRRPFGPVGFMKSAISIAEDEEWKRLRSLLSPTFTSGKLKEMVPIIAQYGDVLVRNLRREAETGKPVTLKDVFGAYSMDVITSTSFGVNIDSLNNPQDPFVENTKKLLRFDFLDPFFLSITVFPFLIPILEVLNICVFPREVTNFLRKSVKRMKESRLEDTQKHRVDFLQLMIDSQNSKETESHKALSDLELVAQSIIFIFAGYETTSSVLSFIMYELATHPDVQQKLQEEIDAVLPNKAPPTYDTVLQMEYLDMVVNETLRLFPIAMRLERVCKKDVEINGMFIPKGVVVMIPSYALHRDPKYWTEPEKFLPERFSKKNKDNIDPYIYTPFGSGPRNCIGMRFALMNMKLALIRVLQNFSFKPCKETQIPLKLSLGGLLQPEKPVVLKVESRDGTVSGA

[6] = target: Peroxisome proliferator-activated receptor gamma/Nuclear receptor coactivator 2 (Homo sapiens, UniProt P37231); assay type: functional;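 further: agonist potency for raising coactivator recruitment to the receptor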
BJ [7] = test: BJ-TERT-LT-ST fibroblast viability loss – cell-based, RAS-independent, luminescence, dose response (AID 1935); assay type: functional; details: Homo sapiens;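 further: BJ fibroblasts immortalized with TERT plus LT and ST oncogenes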
[8] = target: Peroxisome proliferator-activated receptor gamma/Nuclear receptor coactivator 3 (Homo sapiens, UniProt P37231); assay type: functional;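 further: agonist potency for raising coactivator recruitment to the receptor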
[9] = target: Peroxisome proliferator-activated receptor gamma/Nuclear receptor coactivator 1 (Homo sapiens, UniProt P37231); assay type: functional;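 further: agonist potency as compounds enhance coactivator SRC-1 recruitment to PPARgamma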
Peroxisome proliferator-activated receptor gamma/Nuclear receptor coactivator 1, sequence (P37231 whole entry): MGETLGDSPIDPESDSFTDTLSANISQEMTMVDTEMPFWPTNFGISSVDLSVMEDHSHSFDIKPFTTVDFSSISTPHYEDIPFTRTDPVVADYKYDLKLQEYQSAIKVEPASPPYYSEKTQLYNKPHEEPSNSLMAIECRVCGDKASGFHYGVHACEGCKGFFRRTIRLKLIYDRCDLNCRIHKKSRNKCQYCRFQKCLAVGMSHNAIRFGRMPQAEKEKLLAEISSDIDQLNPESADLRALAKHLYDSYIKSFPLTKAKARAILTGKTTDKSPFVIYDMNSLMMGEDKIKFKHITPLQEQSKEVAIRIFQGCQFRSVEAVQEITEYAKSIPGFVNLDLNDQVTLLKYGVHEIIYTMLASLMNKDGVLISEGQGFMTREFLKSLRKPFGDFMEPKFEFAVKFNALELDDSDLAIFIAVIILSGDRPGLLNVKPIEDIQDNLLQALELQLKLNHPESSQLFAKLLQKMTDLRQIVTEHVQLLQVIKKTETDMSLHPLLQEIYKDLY
Peroxisome proliferator-activated receptor gamma/Nuclear receptor coactivator 1, sequence (Q15788 whole entry, further chain): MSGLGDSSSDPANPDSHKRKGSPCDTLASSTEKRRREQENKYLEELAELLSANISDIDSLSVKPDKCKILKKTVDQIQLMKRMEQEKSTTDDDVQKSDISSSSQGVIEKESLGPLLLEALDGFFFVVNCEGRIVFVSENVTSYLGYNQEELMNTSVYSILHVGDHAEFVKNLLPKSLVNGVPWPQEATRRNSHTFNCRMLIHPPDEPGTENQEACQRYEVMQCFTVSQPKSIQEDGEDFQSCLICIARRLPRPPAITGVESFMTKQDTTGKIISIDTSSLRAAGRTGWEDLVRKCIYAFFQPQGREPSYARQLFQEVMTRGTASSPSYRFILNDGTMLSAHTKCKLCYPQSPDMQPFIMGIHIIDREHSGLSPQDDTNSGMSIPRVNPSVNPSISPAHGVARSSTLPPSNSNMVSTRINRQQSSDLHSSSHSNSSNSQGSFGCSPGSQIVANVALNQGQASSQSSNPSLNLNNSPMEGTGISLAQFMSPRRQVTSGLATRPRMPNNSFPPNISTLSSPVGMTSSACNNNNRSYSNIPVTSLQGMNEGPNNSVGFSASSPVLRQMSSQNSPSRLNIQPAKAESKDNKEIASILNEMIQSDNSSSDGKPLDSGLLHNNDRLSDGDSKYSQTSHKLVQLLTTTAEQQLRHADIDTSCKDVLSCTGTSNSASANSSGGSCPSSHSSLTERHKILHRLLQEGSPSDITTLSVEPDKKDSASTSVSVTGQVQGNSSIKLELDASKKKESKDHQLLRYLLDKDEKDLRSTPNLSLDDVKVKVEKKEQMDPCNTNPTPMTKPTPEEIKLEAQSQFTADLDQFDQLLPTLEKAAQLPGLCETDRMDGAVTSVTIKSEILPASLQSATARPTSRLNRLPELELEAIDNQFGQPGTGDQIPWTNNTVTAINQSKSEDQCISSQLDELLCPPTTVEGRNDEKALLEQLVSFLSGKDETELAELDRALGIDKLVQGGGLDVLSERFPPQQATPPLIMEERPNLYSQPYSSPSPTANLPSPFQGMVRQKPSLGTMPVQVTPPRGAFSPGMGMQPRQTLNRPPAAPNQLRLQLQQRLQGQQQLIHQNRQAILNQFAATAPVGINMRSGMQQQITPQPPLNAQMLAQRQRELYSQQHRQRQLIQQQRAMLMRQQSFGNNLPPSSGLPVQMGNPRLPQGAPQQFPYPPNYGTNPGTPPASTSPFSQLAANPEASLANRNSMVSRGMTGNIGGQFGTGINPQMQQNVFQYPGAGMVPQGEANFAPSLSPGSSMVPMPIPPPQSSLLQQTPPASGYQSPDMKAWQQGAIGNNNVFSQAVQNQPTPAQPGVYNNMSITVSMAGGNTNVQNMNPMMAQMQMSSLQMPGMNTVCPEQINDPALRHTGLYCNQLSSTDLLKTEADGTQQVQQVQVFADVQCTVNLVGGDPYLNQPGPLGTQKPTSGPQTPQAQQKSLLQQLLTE

BJ [10] = test: BJ-TERT fibroblast viability loss – cell-based, RAS-independent, luminescence, dose response (AID 1933); assay type: functional; details: Homo sapiens
BJ [11] = test: cells; assay type: functional, cell-based, Homo sapiens; details: Homo sapiens, BJ
Vero [12] = test: cells; assay type: functional; details: Chlorocebus sabaeus
[13] = target: T1, Endoribonuclease toxin MazF (Escherichia coli K-12, UniProt P0AE70); test: activation of MazEF endoribonuclease cleavage – biochemical, fluorescence, single-stranded RNA substrate, uHTS hits, dose response (AID 588481); assay type: functional
T1 sequence (P0AE70 whole entry): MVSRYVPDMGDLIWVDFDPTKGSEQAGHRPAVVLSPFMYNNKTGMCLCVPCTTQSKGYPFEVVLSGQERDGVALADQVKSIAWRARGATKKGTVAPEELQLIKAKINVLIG

[14] = target: T1, Endoribonuclease toxin MazF; test: substrate-only fluorescence increase artefacts – biochemical, single-stranded RNase substrate, counter-screen for MazEF activator project, dose response (AID 588502); assay type: functional
Protein Wnt-3a = Protein Wnt-3a (Mus musculus, UniProt P27467); test: antagonism of Wnt3a pathway luciferase reporter – Wnt-LIGHT cells, luminescence, selectivity assay for Gli-SUFU antagonist project, dose response (AID 651570); assay type: functional; details: read-out: IC50_Mean;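 further: Wnt-LIGHT reporter cells stimulated with conditioned medium from Wnt3a-producing cells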
Protein Wnt-3a, sequence (P27467 whole entry): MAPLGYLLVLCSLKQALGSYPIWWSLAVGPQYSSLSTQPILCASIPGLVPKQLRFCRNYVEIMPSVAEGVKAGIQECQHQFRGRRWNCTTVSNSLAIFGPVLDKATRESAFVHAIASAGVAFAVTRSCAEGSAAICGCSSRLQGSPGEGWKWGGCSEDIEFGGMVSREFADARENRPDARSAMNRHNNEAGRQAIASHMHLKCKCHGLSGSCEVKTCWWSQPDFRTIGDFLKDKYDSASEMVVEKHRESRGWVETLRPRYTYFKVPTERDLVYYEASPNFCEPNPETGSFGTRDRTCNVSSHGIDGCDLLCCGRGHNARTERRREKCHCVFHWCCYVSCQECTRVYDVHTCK

[15] = fluconazole-exposed Candida albicans growth modulators – fluorescence, retest, confirmation (AID 2467); assay type: functional, cell-based
[16] = NIH-3T3 fibroblast cytotoxicity, dose response, cytotoxicity control, cell-based, fluorescence, Alamar Blue, secondary assay (AID 2327); assay type: functional;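 further: NIH-3T3 mouse fibroblasts cultured with fluconazole at 8 µg/mL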
Streptokinase A = target: T2, Streptokinase A (Streptococcus pyogenes serotype M1, UniProt P10520); test: viability-normalized secreted streptokinase activity reduction – plasminogen activation absorbance, OD405, dose response (AID 1914); assay type: functional, Streptococcus pyogenes M1 GAS;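 further: secreted streptokinase activity via plasminogen activation per viability signal from cell pellet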
T2 sequence (P10520 whole entry): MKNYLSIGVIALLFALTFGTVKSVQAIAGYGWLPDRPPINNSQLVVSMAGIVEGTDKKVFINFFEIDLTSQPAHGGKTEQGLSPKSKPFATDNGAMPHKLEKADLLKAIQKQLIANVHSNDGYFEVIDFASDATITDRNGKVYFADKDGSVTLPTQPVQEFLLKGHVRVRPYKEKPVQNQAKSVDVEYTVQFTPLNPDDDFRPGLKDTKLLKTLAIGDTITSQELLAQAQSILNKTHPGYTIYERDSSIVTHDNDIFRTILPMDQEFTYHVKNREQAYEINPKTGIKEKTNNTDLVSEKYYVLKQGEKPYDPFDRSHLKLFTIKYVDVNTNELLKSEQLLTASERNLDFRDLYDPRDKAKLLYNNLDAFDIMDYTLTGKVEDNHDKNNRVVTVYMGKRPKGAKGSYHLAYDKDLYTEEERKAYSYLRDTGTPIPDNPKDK

[17] = target: T3, Serine/threonine-protein phosphatase (Candida dubliniensis (strain CD36 / CBS 7987 / NCPF 3949 / NRRLY-17841) (Yeast), UniProt B9W6M3); test: blockers of CaCl2-induced CDRE-lacZ signaling – S. cerevisiae, luminescence, secondary, dose response (AID 2388); assay type: functional, cell-based;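 further: yeast reporter cells carrying a calcineurin-responsive lacZ construct stimulated with calcium chloride; luminescent beta-galactosidase reporter signal in whole cells rather than isolated phosphatase activity; potency for inhibition where a drop in reporter signal means calcineurin blockade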
T3 sequence (B9W6M3 whole entry): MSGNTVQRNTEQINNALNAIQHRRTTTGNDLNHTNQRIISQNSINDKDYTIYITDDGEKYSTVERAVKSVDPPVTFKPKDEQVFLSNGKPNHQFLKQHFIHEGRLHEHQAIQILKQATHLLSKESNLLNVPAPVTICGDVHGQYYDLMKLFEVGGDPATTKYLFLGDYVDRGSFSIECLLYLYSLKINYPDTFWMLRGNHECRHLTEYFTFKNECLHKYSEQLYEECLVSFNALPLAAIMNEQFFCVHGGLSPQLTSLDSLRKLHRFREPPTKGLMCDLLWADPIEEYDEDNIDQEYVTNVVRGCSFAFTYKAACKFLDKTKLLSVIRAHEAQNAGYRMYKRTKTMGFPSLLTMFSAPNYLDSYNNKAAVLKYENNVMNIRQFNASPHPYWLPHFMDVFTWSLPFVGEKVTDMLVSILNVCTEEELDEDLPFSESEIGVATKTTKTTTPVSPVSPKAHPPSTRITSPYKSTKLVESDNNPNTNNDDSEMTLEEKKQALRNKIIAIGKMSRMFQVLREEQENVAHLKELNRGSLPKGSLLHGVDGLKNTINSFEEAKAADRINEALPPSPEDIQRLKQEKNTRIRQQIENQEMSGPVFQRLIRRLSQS

[18] = test system: Streptococcus sp. 'group A'; test: Streptococcus pyogenes SK(-)GAS viability under kanamycin – luminescence, BacTiterGlo, confirmation, counter-screen for streptokinase expression inhibitor project, dose response (AID 1900); assay type: functional, organism-based
[19] = target: ATP-dependent molecular chaperone HSP82 (Candida albicans (strain WO-1) (Yeast), UniProt C4YTQ8); test: steroid-induced GRE reporter decrease in yeast – S. cerevisiae, luminescence, Hsp90 inhibitor project, dose response (AID 2400); assay type: functional, cell-based;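 further: beta-galactosidase luminescence from glucocorticoid response element reporter as proxy for Hsp90 function; inhibitor potency where signal loss means Hsp90 inhibition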
ATP-dependent molecular chaperone HSP82, sequence (C4YTQ8 whole entry): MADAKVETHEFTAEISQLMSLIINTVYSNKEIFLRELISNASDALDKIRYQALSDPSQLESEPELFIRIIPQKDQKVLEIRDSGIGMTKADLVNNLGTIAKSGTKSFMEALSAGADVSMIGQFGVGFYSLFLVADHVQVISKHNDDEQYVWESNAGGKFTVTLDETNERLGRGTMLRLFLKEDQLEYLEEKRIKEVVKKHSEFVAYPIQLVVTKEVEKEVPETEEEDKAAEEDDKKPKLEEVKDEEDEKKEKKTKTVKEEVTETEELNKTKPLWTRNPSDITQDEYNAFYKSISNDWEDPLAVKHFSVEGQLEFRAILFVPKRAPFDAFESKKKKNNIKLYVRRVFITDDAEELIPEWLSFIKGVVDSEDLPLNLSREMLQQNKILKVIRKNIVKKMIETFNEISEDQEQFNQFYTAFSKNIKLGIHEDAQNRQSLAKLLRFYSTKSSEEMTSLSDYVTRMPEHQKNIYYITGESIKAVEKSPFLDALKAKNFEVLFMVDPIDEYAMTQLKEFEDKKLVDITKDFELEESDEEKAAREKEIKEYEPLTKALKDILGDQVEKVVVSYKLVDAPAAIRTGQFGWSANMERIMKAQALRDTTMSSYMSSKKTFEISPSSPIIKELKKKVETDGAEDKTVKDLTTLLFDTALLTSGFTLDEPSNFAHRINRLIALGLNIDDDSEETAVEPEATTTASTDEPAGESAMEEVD

Streptococcus = test: GAS UMAA2166 growth inhibition – luminescence, BacTiterGlo, counter-screen for streptokinase expression inhibitor project, dose response (AID 1915); assay type: functional, organism-based;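 further: potency for reduction of bacterial viability or growth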
[20] = Trypanosoma cruzi growth suppression in host cells – NIH3T3 host cells, beta-gal luminescence, confirmation (AID 2044); assay type: functional, cell-based;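 further: intracellular parasites grown in NIH/3T3 mouse fibroblasts as host cells; luminescent beta-galactosidase reporter signal from transgenic T. cruzi replicating inside host cells; inhibitors lower the luminescence signal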
[21] = NIH3T3 cell viability loss – ATP luminescence, mouse fibroblasts, counter-screen, dose response (AID 2010); assay type: functional, cell-based;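 further: cells exposed to compound for about 90 hours before reading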
[22] = target: Dual specificity tyrosine-phosphorylation-regulated kinase 1A (Rattus norvegicus, UniProt Q63470); assay type: biochemical, Homo sapiens
[23] = target: T4, Hepatocyte nuclear factor 4-alpha (Homo sapiens, UniProt P41235); assay type: functional, cell-based;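 further: biochemical luminescence-based dose-response counterscreen measuring inhibition of HNF4 dimerization, run alongside a screen for blockers of ABHD5–perilipin-5 interaction; split luciferase complementation of HNF4 fusion proteins in cell lysate measuring dimerization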
T4 sequence (P41235 whole entry): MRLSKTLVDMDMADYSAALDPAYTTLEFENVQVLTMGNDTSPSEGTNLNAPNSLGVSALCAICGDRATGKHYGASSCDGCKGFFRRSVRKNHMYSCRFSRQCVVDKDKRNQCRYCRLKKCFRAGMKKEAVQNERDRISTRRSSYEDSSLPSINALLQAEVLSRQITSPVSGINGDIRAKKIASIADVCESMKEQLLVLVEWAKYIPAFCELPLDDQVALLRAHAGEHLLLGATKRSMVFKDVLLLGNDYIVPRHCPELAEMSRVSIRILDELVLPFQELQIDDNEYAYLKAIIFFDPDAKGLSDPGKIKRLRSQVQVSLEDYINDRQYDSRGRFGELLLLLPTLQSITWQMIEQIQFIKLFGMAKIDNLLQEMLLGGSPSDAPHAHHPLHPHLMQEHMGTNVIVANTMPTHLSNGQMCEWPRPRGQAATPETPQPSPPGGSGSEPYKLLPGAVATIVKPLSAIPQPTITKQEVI

Genome polyprotein = Genome polyprotein (dengue virus type 2, UniProt P29990); test: flavivirus cap methylation enzyme inhibition – biochemical, confirmation dose response, primary screen (AID 588689); assay type: functional
Vero [24] = test: viability of Vero cells under compound – cytotoxicity control for flavivirus capping enzyme inhibitors (AID 588742); assay type: functional; details: Chlorocebus sabaeus
Escherichia coli = test: microbe, parasite or virus in culture
[25] = target: FAD-linked sulfhydryl oxidase ALR (Homo sapiens, UniProt P55789); test: ALR-catalysed DTT oxidation blockers – biochemical, H2O2 detection, luminescence, cherry-pick, dose response (AID 493248)
FAD-linked sulfhydryl oxidase ALR, sequence (P55789 whole entry): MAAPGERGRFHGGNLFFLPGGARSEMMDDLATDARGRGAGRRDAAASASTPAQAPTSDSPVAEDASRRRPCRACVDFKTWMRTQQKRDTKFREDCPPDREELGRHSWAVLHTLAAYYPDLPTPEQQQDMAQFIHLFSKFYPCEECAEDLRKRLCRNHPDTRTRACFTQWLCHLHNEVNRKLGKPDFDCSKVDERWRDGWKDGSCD

[26] = activation of miR-122 Renilla sensor silencing – cell-based, Huh7 psiCHECK-miR122, Renilla luciferase, cherry-picked, dose response (AID 651956); assay type: functional;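 further: huh7 hepatoma cells stably carrying a psiCHECK-2 miR-122 sensor plasmid; renilla luciferase signal reporting endogenous miR-122 activity after 48 h compound exposure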

SMILES: FC(F)(F)c1nnc2c(Sc3ccc(Cl)cc3)nc3ccccc3n12
- EC50 [1]: 9.34 µM (inconclusive)
- EC50 [2]: > 120 µM (not active)
- EC50 [3]: 9.77 µM (active)
- EC50 [4]: > 120 µM (not active)
- AC50 (Paired box protein Pax-8): 1.27 µM (active)
- EC50 (BJ [5]): 0.565 µM (active)
- AC50 (Cytochrome P450 3A4): inconclusive
- EC50 [6]: 21.7 µM (not active)
- EC50 (BJ [7]): 5.54 µM (inconclusive)
- EC50 [8]: 32.3 µM (not active)
- EC50 [9]: 24.3 µM (not active)
- EC50 (BJ [10]): 3.28 µM (inconclusive)
- EC50 (BJ [11]): 25.2 µM (active)

SMILES: COCCCNC1=NN=C(c2cc(C)n(Cc3ccco3)c2C)CS1
- CC50 (Vero [12]): 2.27 µM (active)
- EC50 (BJ [5]): 0.201 µM (active)

SMILES: O=C(COC(=O)c1ccccc1C(=O)N1CCN(c2ccccc2)CC1)NCc1ccccc1
- EC50 [13]: > 99 µM (inactive)
- EC50 [14]: > 99 µM (inactive)

SMILES: C[C@@H]1C=CC(=O)O[C@@H]1c1ccc(C(F)(F)F)cc1
- EC50 [1]: 2.27 µM (active)
- EC50 (BJ [5]): 0.409 µM (active)
- EC50 (BJ [7]): 12.4 µM (active)
- EC50 (BJ [10]): 49.6 µM (active)
- EC50 (BJ [11]): 5.53 µM (active)

SMILES: CC(=O)N1CC[C+]([N-]NS(=O)(=O)c2cccc([N+](=O)[O-])c2)CC1
- EC50 [13]: > 99 µM (inactive)
- EC50 [14]: 23.9 µM (inactive)

SMILES: CC[n+]1ccn(C)c1P(c1ccccc1)c1ccccc1
- IC50 (Protein Wnt-3a): 6.99 µM (active)

SMILES: O=C(Nc1nnc(-c2ccco2)o1)c1ccc(Cl)cc1
- EC50 [15]: 0.9 µM (active)
- EC50 [16]: > 150 µM (inactive)
- EC50 (Streptokinase A): > 150 µM (not active)
- EC50 [17]: > 180 µM (inactive)
- EC50 [18]: 0.983 µM (active)
- EC50 [19]: > 150 µM (inactive)
- EC50 (Streptococcus): 15.6 µM (active)

SMILES: O=C1NC(=O)/C(=C\c2ccc(Br)o2)S1
- EC50 [15]: 1.3 µM (active)
- EC50 [20]: 21.7 µM (active)
- EC50 [16]: 87.3 µM (inconclusive)
- EC50 [17]: > 180 µM (inactive)
- EC50 [21]: > 60 µM (not active)
- AC50 [22]: 4.62 µM (active)
- EC50 [19]: > 150 µM (inactive)

SMILES: CCC(C(=O)OCCN(CC)CC)c1ccccc1 (centres undefined)
- IC50 [23]: 23.9 µM (inactive)

SMILES: CCCCCCCCn1c(=O)c(C(=O)OCC)c(O)c2ccccc21
- IC50 (Genome polyprotein): 77.2 µM (active)
- CC50 (Vero [24]): > 40 µM (active)

SMILES: Cc1cc(C(C#N)c2ccccc2F)n2ncnc2n1 (centres undefined)
- EC50 [15]: 1.28 µM (active)
- EC50 [16]: > 150 µM (inconclusive)
- EC50 [17]: > 180 µM (inactive)
- AC50 (Escherichia coli): 36.4 µM (active)
- AC50 [25]: 34.3 µM (active)
- EC50 [19]: > 160 µM (inactive)

SMILES: Cc1ccc(S(=O)(=O)N2CCN(CC(=O)NC(=O)NCc3ccccc3)CC2)cc1C
- EC50 [13]: > 99 µM (inactive)
- EC50 [14]: > 99 µM (inactive)

SMILES: O=C(N[C@@H]1C/C=C\C[C@@H](CC(=O)N(CCO)Cc2ccccc2)C(=O)N[C@@H](c2ccccc2)COC1=O)OCC1c2ccccc2-c2ccccc21
- IC50 (Protein Wnt-3a): 12.3 µM (active)

SMILES: CCS(=O)(=O)Nc1ccc2c(c1)C(=O)N(C)C[C@@H](OC)[C@H](C)CN(CC1CCCC1)[C@H](C)CO2
- AC50 [26]: 23.6 µM (active)

SMILES: Cc1cccc(C)c1NC(=O)C(c1ccccc1)n1c(=O)c(-c2ccco2)nc2ccccc21 (centres undefined)
- IC50 [23]: 3.81 µM (active)

SMILES: CC(C)(C)NC(=O)C(c1cccc2ccccc12)n1c(=O)c(-c2ccco2)nc2ccccc21 (centres undefined)
- IC50 [23]: 2.27 µM (active)
